Measurements from US12329158B2, “Large-scale methods of uniformly coating packaging surfaces with a volatile antimicrobial to preserve food freshness” (AGROFRESH INC., priority 2013, dated 2025).
Converted amounts (≈) assume the structure as drawn. Read-outs that look alike come from different tables or passages of the source.

What was measured:
[1] = system: B. cinerea; experiment: In vitro contact assay, amended agar (Example 24); type: cell-based; conditions: Botrytis cinerea, 72 h; amended agar; 100% control; 3 days at 23 C; read-out: Contact MIC (mg/L) B. cinerea
Description: (§1) Contact assay: 6-well (16.5 mL volume per well) microtiter plates are used for an in vitro inhibition assay. […] A 7.5-mL volume of the amended media is added to each well of the microtiter plate. […] The plates are sealed with a clear film and incubated for 3 days at 23° C. After incubation, plates are evaluate for percent growth relative to acetone only control.

[2] = system: P. expansum; experiment: In vitro contact assay, amended agar (Example 24); type: cell-based; conditions: Penicillium expansum, 72 h; amended agar; 100% control; 3 days at 23 C; read-out: Contact MIC (mg/L) P. expansum
Description: as §1

[3] = system: Monilinia fruticola; experiment: Volatile MIC assay (Example 11); type: cell-based; conditions: M. fruticola
Description: (§2) A 3-mL volume of full-strength Potato Dextrose Agar (PDA) is added to each well. After cooling, 1 μL of 1×10^5 spores per mL of Botrytis cinerea, Penicillium expansum, Alternaria alternata, Glomerella cingulata, Penicillium digitatum, Monilinia fruticola, Aspergillus brasiliensis, Colletotrichum acutatum, Fusarium sambucinum, Phytophthora capsici, Geotrichum candidum, Aspergillus niger, Diplodia gossypina or Diaporthe citrii suspension is spotted onto the center of the agar. A Whatman #1 filter disk (Cat. No. 1001-0155) is placed, in duplicate, on the underside of a polyethylene PCR plate sealing film. […] The headspace around the inoculum is then sealed inside the well by the film with the adhering disk containing the fungicide by inverting the plates over the treated disks and sealing to prevent any of the chemical from flaking from the disk and falling onto the inoculated agar. After 3 days of storage at 23° C., cultures are evaluated for percent growth relative to control.

[4] = system: Alternaria alternata; experiment: Volatile MIC assay (Example 11); type: cell-based; conditions: A. alternata
Description: as §2

[5] = system: Penicillium digitatum; experiment: Volatile MIC assay (Example 11); type: cell-based; conditions: P. digitatum
Description: as §2

[6] = system: Aspergillus brasiliensis; experiment: Volatile MIC assay (Example 11); type: cell-based; conditions: A. brasiliensis
Description: as §2

[7] = system: Phytophthora capsici; experiment: Volatile MIC assay (Example 11); type: cell-based; conditions: P. capsici
Description: as §2

[8] = system: Diplodia gossypina; experiment: Volatile MIC assay (Example 11); type: cell-based; conditions: Lasiodiplodia theobromae, D. gossypina
Description: as §2

[9] = system: Colletotrichum acutatum; experiment: Volatile MIC assay (Example 11); type: cell-based; conditions: C. acutatum
Description: as §2

[10] = system: Botrytis cinerea; experiment: In vitro inhibition assay for volatile fungicide, 12-well plates (Example 7); type: cell-based
Description: For testing activity against fungi pathogens, an in vitro inhibition assay for volatile antimicrobial compounds is developed using 12-Well (7 milliliter (mL) volume per well) microtiter plates. A 3-mL volume of full-strength Potato Dextrose Agar (PDA) is added to each well. After cooling, 1 microliter (μL) of 1×10^6 per mL Botrytis cinerea spore suspension is spot pipetted to the center of the agar. For the first experiment, inoculated plates are allowed to germinate for 5 days at 4° C. For the second experiment, plates are inoculated immediately prior to volatile fungicide treatment. Small Whatman #1 filter disks (Cat. No. 1001-0155) are placed, in duplicate, on the underside of a polyethylene PCR plate sealing film.
The acetone is permitted to evaporate for 5 minutes. The headspace around the Botrytis cinerea inoculum is then sealed inside the well by the film with the adhering disk containing the fungicide. Plates are inverted, placed over the treated disks and sealed to prevent any of the chemical from flaking from the disk and falling onto the inoculated agar. After 14 days of storage at 4° C., cultures are evaluated for percent growth relative to control. […]

[11] = system: M. piriformis; experiment: Volatile MIC assay (Example 11); type: cell-based; conditions: Mucor piriformis
[12] = system: C. krusei (or I. orientalis); experiment: In vitro volatile assay, yeast infection species (Example 27); type: cell-based, Issatchenkia orientalis; conditions: Pichia kudriavzevii
Description: More specifically, growth inhibition of yeast infection fungal species C. albicans and C. krusei (or I. orientalis) by volatile treatment of Compound 10 was assessed via a volatile assay.
Volatile assay: 6-well (16.5 mL volume per well) microtiter plates are used in an in vitro inhibition assay for Compound 10 (i.e., Compound A). A 7.5-mL volume of half strength PDA is added to each well. After drying, a mycelial plug (5 mm diameter) is aseptically obtained from actively growing cultures of C. albicans and C. krusei (or I. orientalis) and placed at the center of the plate with the mycelial side in contact with the agar. A Whatman #1 filter disk (Cat. No. 1001-325) is placed, in duplicate, on the underside of a polyethylene PCR plate sealing film. […] The acetone/methanol is permitted to evaporate for 5 minutes. The headspace around the inoculum is then sealed inside the well by the film with the adhering disk containing the fungicide and incubated inverted for 5 days at 28° C.

[13] = Solubility in methanol (remark in Example 25); type: physicochemical; conditions: room temperature

## OB1OCc2cc(F)ccc21 [Compound A, 5-fluoro-1,3-dihydro-1-hydroxy-2,1-benzoxaborole]
[1]
  MIC: < 0.08 mg/L
[2]
  MIC: 0.4 mg/L (≈ 2.63 µM)
[3]
  MIC: 2.2 µg/mL (≈ 14.5 µM)
[4]
  MIC: 2.2 µg/mL (≈ 14.5 µM)
[5]
  MIC: 2.2 µg/mL (≈ 14.5 µM)
[6]
  MIC: 2.2 µg/mL (≈ 14.5 µM)
[7]
  MIC: 1.1 µg/mL (≈ 7.24 µM)
[8]
  MIC: 1.1 µg/mL (≈ 7.24 µM)
[9]
  MIC: 4.4 µg/mL (≈ 29 µM)
[10]; 0.0006 mg per disk
  Botrytis inhibition % (in vitro): 46%
[10]; 0.001 mg per disk
  Botrytis inhibition % (in vitro): 69%
[10]; 0.0024 mg per disk
  Botrytis inhibition % (in vitro): 85%
[10]; 0.005 mg per disk
  Botrytis inhibition % (in vitro): 100%
[10]; 0.01 mg per disk
  Botrytis inhibition % (in vitro): 100%
[10]; 0.023 mg per disk
  Botrytis inhibition % (in vitro): 100%
[10]; 0.04 mg per disk
  Botrytis inhibition % (in vitro): 100%
[10]; 0.08 mg per disk
  Botrytis inhibition % (in vitro): 100%
[10]; 0.16 mg per disk
  Botrytis inhibition % (in vitro): 100%
[10]; 0.31 mg per disk
  Botrytis inhibition % (in vitro): 100%
[10]; 0.63 mg per disk
  Botrytis inhibition % (in vitro): 100%
[10]; 1.25 mg per disk
  Botrytis inhibition % (in vitro): 100%
[10]; volatile, 14 days at 4 C
  Rate giving 100% in vitro inhibition of Botrytis cinerea: 0.005 mg/disk
[11]
  MIC: 1.1 µg/mL (≈ 7.24 µM)
[12]; 120 h, read-out: minimum inhibitory concentration (MIC) for C. krusei
  MIC: 35.7 µg/mL (≈ 235 µM)
[12]; volatile, 0.017 mg/L, read-out: Growth Inhibition (%) C. krusei/I. orientalis
  inhibition at 0.017 µg/mL: -1.3%
[12]; volatile, 0.035 mg/L, read-out: Growth Inhibition (%) C. krusei/I. orientalis
  inhibition at 0.035 µg/mL: -1.4%
[12]; volatile, 0.07 mg/L, read-out: Growth Inhibition (%) C. krusei/I. orientalis
  inhibition at 0.07 µg/mL: 0.5%
[12]; volatile, 0.1 mg/L, read-out: Growth Inhibition (%) C. krusei/I. orientalis
  inhibition at 0.1 µg/mL: 0.4%
[12]; volatile, 0.3 mg/L, read-out: Growth Inhibition (%) C. krusei/I. orientalis
  inhibition at 0.3 µg/mL: 1.2%
[12]; volatile, 0.6 mg/L, read-out: Growth Inhibition (%) C. krusei/I. orientalis
  inhibition at 0.6 µg/mL: -5.2%
[12]; volatile, 1.1 mg/L, read-out: Growth Inhibition (%) C. krusei/I. orientalis
  inhibition at […]: -0.2%
[12]; volatile, 2.2 mg/L, read-out: Growth Inhibition (%) C. krusei/I. orientalis
  inhibition at […]: 18.2%
[12]; volatile, 4.5 mg/L, read-out: Growth Inhibition (%) C. krusei/I. orientalis
  inhibition at […]: 22%
[12]; volatile, 8.9 mg/L, read-out: Growth Inhibition (%) C. krusei/I. orientalis
  inhibition at […]: 30.5%
[13]
  Solubility in methanol (in words): not soluble in methanol at room temperature
